Laboratory results reported in ChEMBL document CHEMBL4699514, “Glucose Uptake-Stimulating Galloyl Ester Triterpenoids from Castanopsis sieboldii” (2020).
The source made the active and inactive calls. The rule behind the calls is not given here.

Tests used:
3T3-L1 = test: Induction of glucose uptake in mouse 3T3-L1 adipocytes assessed as [3H]2-deoxy-D-glucose uptake incubated for 1 hr followed by [3H]2-deoxy-D-glucose addition by fluorescence microscopic method; format: functional; details: read-out: ED50 (the source's name)
C2C12 = test: Activation of AMPK pathway in mouse C2C12 cells assessed as increase in AMPK phosphorylation at 10 to 20 uM after 60 mins by Western blot analysis; format: cell-based; details: filed as activator, dose microM 10-20, time 60.0 min

SMILES | EC50 (3T3-L1) [µM] | Activity (C2C12)
CC1(C)CC[C@]2(C(=O)O[C@@H]3O[C@H](CO)[C@@H](O)[C@H](O)[C@H]3O)CC[C@]3(C)C(=CC[C@@H]4[C@@]5(C)C[C@@H](O)[C@H](OC(=O)c6cc(O)c(O)c(O)c6)C6(COC(=O)c7cc(O)c(O)c(O)c7-c7c(cc(O)c(O)c7O)C(=O)OC6)[C@@H]5CC[C@]43C)[C@@H]2C1 | 10.6 | 
CC1(C)CC[C@]2(C(=O)O)CC[C@]3(C)C(=CC[C@@H]4[C@@]5(C)C[C@@H](O)[C@H](O)C(CO)(CO)[C@@H]5CC[C@]43C)[C@@H]2C1 | 6.89 | 
CC1(C)CC[C@]2(C(=O)O[C@@H]3O[C@H](CO)[C@@H](O)[C@H](O)[C@H]3O)CC[C@]3(C)C(=CC[C@@H]4[C@@]5(C)C[C@@H](O)[C@H](OC(=O)c6cc(O)c(O)c(O)c6)[C@](CO)(COC(=O)c6cc(O)c(O)c(O)c6)[C@@H]5CC[C@]43C)[C@@H]2C1 | 12.1 | Active
